These results are taken from paper PMC8869358, “High-Throughput Chemical Screening and Structure-Based Models to Predict hERG Inhibition” (Biology, 2022).

Structures are written as SMILES. Structures can show the parent of a compound that is named as a salt.

For the first series, the target named is T1, hERG (Homo sapiens, UniProt Q12809). Nature of the series: cell-based. The settings on record: (-LOG10(IC50), µM).
T1 sequence (Q12809 whole entry): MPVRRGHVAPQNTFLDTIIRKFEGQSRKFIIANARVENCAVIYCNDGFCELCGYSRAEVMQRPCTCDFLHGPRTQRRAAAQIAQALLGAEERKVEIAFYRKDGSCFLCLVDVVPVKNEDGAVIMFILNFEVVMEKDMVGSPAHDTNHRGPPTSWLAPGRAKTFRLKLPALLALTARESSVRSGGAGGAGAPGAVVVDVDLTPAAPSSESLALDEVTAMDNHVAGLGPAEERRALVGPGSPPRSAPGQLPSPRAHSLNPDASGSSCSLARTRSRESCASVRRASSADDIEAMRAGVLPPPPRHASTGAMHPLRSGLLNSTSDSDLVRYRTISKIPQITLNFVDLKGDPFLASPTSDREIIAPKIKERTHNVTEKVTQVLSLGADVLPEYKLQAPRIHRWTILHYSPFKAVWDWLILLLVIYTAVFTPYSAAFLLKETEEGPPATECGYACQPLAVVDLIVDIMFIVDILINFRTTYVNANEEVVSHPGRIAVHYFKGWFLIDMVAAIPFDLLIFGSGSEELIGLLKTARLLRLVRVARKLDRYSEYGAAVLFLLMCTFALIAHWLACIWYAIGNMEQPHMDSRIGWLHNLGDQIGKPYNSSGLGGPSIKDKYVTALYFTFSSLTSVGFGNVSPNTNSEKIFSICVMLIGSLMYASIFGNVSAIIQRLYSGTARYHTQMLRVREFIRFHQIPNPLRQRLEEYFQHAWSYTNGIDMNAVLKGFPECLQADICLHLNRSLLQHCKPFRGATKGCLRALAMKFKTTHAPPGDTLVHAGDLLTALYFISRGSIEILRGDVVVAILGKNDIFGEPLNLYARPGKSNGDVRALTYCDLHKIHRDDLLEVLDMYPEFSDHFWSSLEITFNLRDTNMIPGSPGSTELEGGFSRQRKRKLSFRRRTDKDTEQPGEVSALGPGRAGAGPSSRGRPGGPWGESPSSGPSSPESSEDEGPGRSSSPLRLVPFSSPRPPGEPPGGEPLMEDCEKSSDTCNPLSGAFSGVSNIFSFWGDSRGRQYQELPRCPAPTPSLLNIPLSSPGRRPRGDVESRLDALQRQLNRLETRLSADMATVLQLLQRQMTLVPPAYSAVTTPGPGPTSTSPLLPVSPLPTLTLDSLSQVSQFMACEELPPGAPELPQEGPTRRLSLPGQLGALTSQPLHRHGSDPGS
In general, IC50 refers to the concentration that inhibits the measured activity by half. High values mean weaker potency in that assay, low ones greater potency in that assay. As to `CC(=O)c1cc2c(cc1C)C(C)(C)C(C)CC2(C)C` (centres unmarked) [Tonalide], the IC50 was 20.3 µM.

In turn, `N#Cc1c(-c2ccc(Cl)cc2)[nH]c(C(F)(F)F)c1Br` [Tralopyril] gave an IC50 of 11 µM.

Turning to `COc1cc2c(cc1OC)-c1c/c(=N\c3c(C)cc(C)cc3C)n(C)c(=O)n1CC2` [Trequinsin hydrochloride], the IC50 is 14 µM.

Consider `CC(C)N(C(=O)SCC(Cl)=C(Cl)Cl)C(C)C` [Tri-allate], for which the IC50 was 20 µM. On the same count and under the same terms, in the case of `Cc1ccccc1OP(=O)(Oc1ccccc1C)Oc1ccccc1C` [Tri-o-cresyl phosphate] it was 21.1 µM; in that of `CCCC[P+](C)(CCCC)CCCC` [Tributylmethylphosphonium methyl sulfate], 35.1 µM.

The compound `CCCCOCCOC(=O)COc1nc(Cl)c(Cl)cc1Cl` [Triclopyr butotyl] showed an IC50 of 34.7 µM. The IC50 values of the last two compounds are within 1.5-fold of each other. Consider `Oc1cc(Cl)ccc1Oc1ccc(Cl)cc1Cl` [Triclosan], for which the IC50 was 45.2 µM. The same measure, in the same setting: next, `C=CC(=O)OCC1CC2CC1C1CCC(COC(=O)C=C)C21` (centres unmarked) [Tricyclodecanedimethanol diacrylate]: 36 µM; `CCCCCCCCCCCCCN1CC(C)OC(C)C1` (centres unmarked) [Tridemorph]: 16.4 µM; `CCCOC/C(=N\c1ccc(Cl)cc1C(F)(F)F)n1ccnc1` [Triflumizole]: 36 µM.

As for `CCCCCCCCCCCCCC[P+](CCCCCC)(CCCCCC)CCCCCC` [Trihexyltetradecylphosphonium bromide], the IC50 was 0.44 µM. The same measure, in the same setting: in the case of `CCCCCCCCCCCCCC[P+](CCCCCC)(CCCCCC)CCCCCC` [Trihexyltetradecylphosphonium chloride] it was 0.875 µM; in that of `CCCCCCCCCCCCCC[P+](CCCCCC)(CCCCCC)CCCCCC.N#C[N-]C#N` [Trihexyltetradecylphosphonium dicyanamide], 0.55 µM; in that of `CCCCCCCCCCCCCC[P+](CCCCCC)(CCCCCC)CCCCCC` [Trihexyltetradecylphosphonium hexafluorophosphate], 0.47 µM. The compound `CCC(COC(=O)c1cc(OC)c(OC)c(OC)c1)(c1ccccc1)N(C)C` (centres unmarked) [Trimebutine maleate] gave an IC50 of 16.9 µM. This IC50 lies about 36-fold higher than the previous one. The compound `CC(CN(C)C)CN1c2ccccc2CCc2ccccc21` (centres unmarked) [Trimipramine hydrogen maleate] had an IC50 of 14.5 µM. In turn, `CCN(CC)CCOc1ccc(C(O)(Cc2ccc(Cl)cc2)c2ccc(C)cc2)cc1` (centres unmarked) [Triparanol] gave an IC50 of 1.11 µM. Against the preceding compound, the IC50 is about 13-fold lower. The same measure, in the same setting: in the case of `CN(C)CCN(Cc1ccccc1)c1ccccn1` [Tripelennamine citrate] it was 12.7 µM; in that of `C(=C(c1ccccc1)c1ccccc1)c1ccccc1` [Triphenylethylene], 18.1 µM. Compound `O[Si](c1ccccc1)(c1ccccc1)c1ccccc1` [Triphenylsilanol] gave an IC50 of 21.9 µM.

Take `O=P(OCC(Br)CBr)(OCC(Br)CBr)OCC(Br)CBr` (centres unmarked) [Tris(2,3-dibromopropyl) phosphate]: inhibition was half-maximal at 16.9 µM (IC50). The IC50 values of the last two compounds are within 1.5-fold of each other. In the case of `CN1[C@@H]2CC[C@H]1C[C@@H](OC(=O)c1c[nH]c3ccccc13)C2` [Tropisetron], it took 12.9 µM to reach half-maximal inhibition (IC50). In turn, `CCCOc1ccc(S(=O)(=O)N2CCN(CC)CC2)cc1-c1nc2c(CC)n(Cc3ccccn3)nc2c(=O)[nH]1` [UK-343664] had an IC50 of 21.9 µM. `CN[C@H]1CC[C@@H](c2ccc(Cl)c(Cl)c2)c2ccc(S(N)(=O)=O)cc21` [UK-373911] gave an IC50 of 6.92 µM. `CSc1ccc(Oc2ccc(S(N)(=O)=O)cc2CN(C)C)cc1C` [UK-416244] had an IC50 of 8.71 µM. This IC50 and that of the compound before are within 1.5-fold of each other.

Regarding `CC[C@]12CCCN3CCc4c(n(c5ccccc45)[C@@](O)(C(=O)OC)C1)[C@@H]32` [Vincamine], half-maximal inhibition (IC50) required 1.33 µM. Compared with the last compound, the IC50 is about 6.5-fold lower. Turning to `CCC1=C[C@@H]2CN(C1)Cc1c([nH]c3ccccc13)[C@@](C(=O)OC)(c1cc3c(cc1OC)N(C)[C@H]1[C@@](O)(C(=O)OC)[C@H](OC(C)=O)[C@]4(CC)C=CCN5CC[C@]31[C@@H]54)C2` [Vinorelbine tartrate], half-maximal inhibition (IC50) was put at 6.49 µM. `CCOC(=O)C1=C[C@]2(CC)CCCN3CCc4c(n1c1ccccc41)[C@@H]32` [Vinpocetine] gave an IC50 of 0.169 µM. The same measure, in the same setting: next, `FC(F)(F)c1cccc(C2=CCN(CCc3ccc4ccccc4c3)CC2)c1` [Xaliproden hydrochloride]: 1.76 µM; `COC(=O)[C@@H]1[C@H]2C[C@H]3c4[nH]c5ccccc5c4CCN3C[C@@H]2CC[C@@H]1O` [Yohimbine]: 23.9 µM. `CC1(CN2CCC(n3c(=O)[nH]c4ccccc43)CC2)OCc2ccccc2-n2cccc21` (centres unmarked) [Zaldaride] gave an IC50 of 8.82 µM. `c1ccc(C(O[C@H]2CCCN(CCc3ccc4c(c3)OCO4)C2)c2ccccc2)cc1` [Zamifenacin fumarate]: the IC50 is 0.535 µM. In turn, `c1ccc(C(O[C@@H]2CCCN(CCc3ccc4c(c3)OCO4)C2)c2ccccc2)cc1` [Zamifenacin] gave an IC50 of 0.838 µM. Consider `O=C(CCC1CCN(Cc2ccccc2)CC1)c1ccc2c(c1)NCCCC2` [Zanapezil fumerate], for which half-maximal inhibition (IC50) required 4.59 µM.

As to `COc1ccc(CCN(C)CCCN2CCc3cc(OC)c(OC)cc3CC2=O)cc1OC` [Zatebradine hydrochloride], 10.1 µM corresponded to half-maximal inhibition (IC50). The compound `C[C@H]1CCC[C@H](O)CCCCCc2cc(O)cc(O)c2C(=O)O1` [Zearalanol] showed a half-maximal inhibitory concentration (IC50) of 55.4 µM. The compound `c1cc(CN2CCCCC2)cc(OCCCNc2nc3ccccc3s2)c1` [Zolantidine dimaleate] had an IC50 of 9.16 µM. Turning to `CCC(C)(NC(=O)c1cc(Cl)c(C)c(Cl)c1)C(=O)CCl` (centres unmarked) [Zoxamide], the half-inhibitory concentration (IC50) is 39.1 µM. Against the preceding compound, the IC50 is about 4.3-fold higher.

For the compound `Cl[C@H]1[C@H](Cl)[C@@H](Cl)[C@H](Cl)[C@H](Cl)[C@H]1Cl` [alpha-1,2,3,4,5,6-Hexachlorocyclohexane], the IC50 was 49.4 µM. The IC50 values of the last two compounds are within 1.5-fold of each other.

`OCCN1CCN(CC/C=C2/c3ccccc3Sc3ccc(C(F)(F)F)cc32)CC1` [cis-Flupentixol]: half-maximal inhibition (IC50) required 1.69 µM. Same read-out and setting: next, `Cl[C@H]1[C@H](Cl)[C@@H](Cl)[C@H](Cl)[C@@H](Cl)[C@H]1Cl` [delta-Hexachlorocyclohexane]: 51.9 µM; `ClC(Cl)=C(c1ccc(Cl)cc1)c1ccccc1Cl` [o,p'-DDE]: 21 µM. Consider `Clc1ccc(C(c2ccccc2Cl)C(Cl)(Cl)Cl)cc1` (centres unmarked) [o,p'-DDT], for which half-maximal inhibition (IC50) was put at 21.5 µM. The compound `Clc1ccc(C(c2ccc(Cl)cc2)C(Cl)Cl)cc1` [p,p'-DDD] showed an IC50 of 25.5 µM. Compound `ClC(Cl)=C(c1ccc(Cl)cc1)c1ccc(Cl)cc1` [p,p'-DDE] showed an IC50 of 27.5 µM. As for `CCc1ccc(C(c2ccc(CC)cc2)C(Cl)Cl)cc1` [p,p'-Ethyl-DDD], the IC50 was 17.7 µM. Compound `CCOP(=S)(OCC)Oc1ccc([N+](=O)[O-])cc1` [parathion] gave an IC50 of 45.9 µM. The same measure, in the same setting: next, `O=P(Oc1ccccc1)(Oc1ccccc1)Oc1ccccc1` [triphenyl phosphate]: 32.1 µM.

In another series the target is T1, hERG. As to the kind of experiment: Tox21 qHTS FluxOR thallium flux assay in hERG-U2OS cells.
Conditions: not given
As for the experimental part:
The hERG-U2OS cell line was purchased from Codex BioSolution, Inc. (Gaithersburg, MD, USA). All the cell culture reagents were obtained from Invitrogen (Life Technologies, Madison, WI, USA). The hERG-U2OS cells were cultured in DMEM with Glutamax containing 10% fetal bovine serum (FBS), 1% of Non-Essential AA (NEAA), 50 U/mL penicillin, 50 μg/mL streptomycin, and 1 µg/mL puromycin. The cells were maintained at 37 °C under a humidified atmosphere and 5% CO2.
A FluxORTM thallium flux assay was performed in hERG-U2OS cells with stable hERG expression, as previously described. In this assay, thallium ions are used as surrogates for K^+ ions to monitor the activity of the hERG K^+ channel. […] The hERG-U2OS cells suspended in culture medium were dispensed at 1000 cells/well/3μL into 1536-well, black wall/clear-bottom plates using a Multidrop Combi dispenser (Thermo Fisher, Waltham, MA, USA). After the assay plates were incubated at 37 °C overnight, 3 μL of Loading Buffer provided from FluxOR II Potassium Ion Channel Assay Kit (Life Technologies, Carlsbad, CA, USA) was added to each assay well. The assay plates were then incubated at room temperature in the dark for 1 h, followed by the addition of 23 nL of compound, dissolved in DMSO, DMSO only, or positive control, to the assay plate. Each compound was tested at 15 concentrations in three independent runs.
Multiple criteria were used to select each small molecule, including properties allowing for high-throughput screens (HTS) (molecular weight, volatility, solubility, logP), commercial availability, possible and definite environmental hazards, or exposure concerns, and cost. A diverse group of 88 compounds was selected to be used as an internal control and plated in duplicate on each library plate to perform reproducibility analysis as well as to determine positional plate effects. Each compound in the Tox21 10K compound library was subjected to analytical chemistry quality control (QC), which provides information on the purity and identity of each sample. […] The compounds were serially diluted in Dimethylsulfoxide (DMSO) to 15 concentrations in 1536-well plates, covering a concentration range of up to four orders of magnitude.
Many of these chemicals were sourced independently by NTP/EPA/NCATS from different vendors or the same vendor but different batches; these chemicals have been tested in replicates. Compound concentration-response data analysis was performed as previously described. […] The dataset was then corrected using the DMSO-only compound plates at the beginning and end of the compound plate stack by applying an in-house pattern correction algorithm. The half-maximum inhibition values (IC50) for each compound and maximum response (efficacy) values were obtained by fitting the concentration-response curves of each compound to a four-parameter Hill equation [24]. […] To identify chemicals with the potential to inhibit the hERG channel, we selected only antagonist chemicals with curve rank −5 to −9.
In general terms: qHTS replaces the single test concentration by a dilution series.
`O=C(CCCN1CCC(O)(c2ccc(Cl)cc2)CC1)c1ccc(F)cc1` [Haloperidol]: the “activity outcome for hERG inhibition in the assay” value is recorded as “most active”.

Still in this series, the particulars now being: (-LOG10(IC50), µM), Supplementary File S2, Tox21 chemical library.
As to `CCNC(=O)N1CCN(CCCC(c2ccc(F)cc2)c2ccc(F)cc2)CC1` [Amperozide hydrochloride], half-maximal inhibition (IC50) was put at 0.0916 µM. The compound `OC(CN1CCC(Cc2ccc(F)cc2)CC1)c1ccc(Cl)cc1` (centres unmarked) [Eliprodil] showed an IC50 of 0.0916 µM.

The series is the same for the next values; noted with them: IC50, hERG-U2OS cells, thallium flux, qHTS, 15 concentrations, three runs.
Compound `OC(CN1CCC(Cc2ccc(F)cc2)CC1)c1ccc(Cl)cc1` (centres unmarked) [Eliprodil] came in with an IC50 of 0.09 µM. This counts as double-digit nanomolar.

Staying with this series, now noted: hERG-U2OS cells, thallium flux, qHTS; result in words.
For `CCCCCCCCCCn1cc[n+](CCCCCCCCCC)c1C.[Cl-]` [3-Didecyl-2-methylimidazolium chloride], the “activity outcome for hERG inhibition in the assay” value is reported as “most active”. `O=c1[nH]cc(F)c(=O)[nH]1` [5-fluorouracil]: the “activity outcome for hERG inhibition in the assay” value is “inactive”. `CO.COc1cc(Nc2c(C#N)cnc3cc(OCCCN4CCN(C)CC4)c(OC)cc23)c(Cl)cc1Cl` [Bosutinib methanoate]: the “activity outcome for hERG inhibition in the assay” value was “showing activity against hERG”. `O=c1[nH]c2ccccc2n1CCCN1CCC(n2c(=O)[nH]c3cc(Cl)ccc32)CC1` [Domperidone]: the “activity outcome for hERG inhibition in the assay” value was “showing activity against hERG”. Turning to `OC(CN1CCC(Cc2ccc(F)cc2)CC1)c1ccc(Cl)cc1` (centres unmarked) [Eliprodil], the “activity outcome for hERG inhibition in the assay” value is listed as “most active”. Consider `O=C1NCN(c2ccccc2)C12CCN(CCCC(c1ccc(F)cc1)c1ccc(F)cc1)CC2` [Fluspirilene], for which the “activity outcome for hERG inhibition in the assay” value was “most active”.
